Reference: the NIST ThermoML archive (doi:10.1021/je400486p)

Test: xn = mol fraction of the nth substance listed
Details: 101.3 kPa, Liquid; for viscosity: Concentric cylinders viscometry; for mass density: Vibrating tube method

CN1CCCC1=O [N-methylpyrrolidone] + CCC(C)O
Details	mass density [kg/m3]	viscosity [mPa·s]
288.15 K, x2 = 0	1037.3	1.99
288.15 K, x2 = 0.1049	1014.52	1.984
288.15 K, x2 = 0.2001	993.63	1.974
288.15 K, x2 = 0.3009	971.257	1.972
288.15 K, x2 = 0.4019	948.589	2.005
288.15 K, x2 = 0.5003	926.282	2.032
288.15 K, x2 = 0.5995	903.599	2.118
288.15 K, x2 = 0.7004	880.362	2.302
288.15 K, x2 = 0.7985	857.64	2.618
288.15 K, x2 = 0.899	834.259	3.227
293.15 K, x2 = 0	1032.84	1.823
293.15 K, x2 = 0.1049	1010.11	1.815
293.15 K, x2 = 0.2001	989.247	1.801
293.15 K, x2 = 0.3009	966.914	1.798
293.15 K, x2 = 0.4019	944.287	1.817
293.15 K, x2 = 0.5003	922.02	1.839
293.15 K, x2 = 0.5995	899.376	1.905
293.15 K, x2 = 0.7004	876.183	2.048
293.15 K, x2 = 0.7985	853.51	2.29
293.15 K, x2 = 0.899	830.183	2.757
298.15 K, x2 = 0	1028.38	1.679
298.15 K, x2 = 0.1049	1005.69	1.664
298.15 K, x2 = 0.2001	984.854	1.652
298.15 K, x2 = 0.3009	962.556	1.647
298.15 K, x2 = 0.4019	939.97	1.655
298.15 K, x2 = 0.5003	917.742	1.67
298.15 K, x2 = 0.5995	895.133	1.72
298.15 K, x2 = 0.7004	871.975	1.832
298.15 K, x2 = 0.7985	849.341	2.019
298.15 K, x2 = 0.899	826.054	2.368
303.15 K, x2 = 0	1023.92	1.555
303.15 K, x2 = 0.1049	1001.27	1.538
303.15 K, x2 = 0.2001	980.46	1.524
303.15 K, x2 = 0.3009	958.194	1.514
303.15 K, x2 = 0.4019	935.644	1.516
303.15 K, x2 = 0.5003	913.448	1.522
303.15 K, x2 = 0.5995	890.869	1.56
303.15 K, x2 = 0.7004	867.739	1.645
303.15 K, x2 = 0.7985	845.132	1.792
303.15 K, x2 = 0.899	821.864	2.051
308.15 K, x2 = 0	1019.46	1.444
308.15 K, x2 = 0.1049	996.845	1.427
308.15 K, x2 = 0.2001	976.091	1.411
308.15 K, x2 = 0.3009	953.86	1.399
308.15 K, x2 = 0.4019	931.323	1.393
308.15 K, x2 = 0.5003	909.136	1.397
308.15 K, x2 = 0.5995	886.575	1.424
308.15 K, x2 = 0.7004	863.468	1.489
308.15 K, x2 = 0.7985	840.874	1.598
308.15 K, x2 = 0.899	817.592	1.786
313.15 K, x2 = 0	1015	1.346
313.15 K, x2 = 0.1049	992.413	1.327
313.15 K, x2 = 0.2001	971.652	1.311
313.15 K, x2 = 0.3009	949.443	1.297
313.15 K, x2 = 0.4019	926.949	1.285
313.15 K, x2 = 0.5003	904.8	1.285
313.15 K, x2 = 0.5995	882.258	1.303
313.15 K, x2 = 0.7004	859.157	1.351
313.15 K, x2 = 0.7985	836.567	1.431
313.15 K, x2 = 0.899	813.284	1.566
318.15 K, x2 = 0	1010.53	1.259
318.15 K, x2 = 0.1049	987.978	1.239
318.15 K, x2 = 0.2001	967.237	1.221
318.15 K, x2 = 0.3009	945.05	1.206
318.15 K, x2 = 0.4019	922.578	1.19
318.15 K, x2 = 0.5003	900.445	1.186
318.15 K, x2 = 0.5995	877.912	1.197
318.15 K, x2 = 0.7004	854.81	1.23
318.15 K, x2 = 0.7985	832.207	1.286
318.15 K, x2 = 0.899	808.882	1.379
323.15 K, x2 = 0	1006.06	1.182
323.15 K, x2 = 0.1049	983.533	1.161
323.15 K, x2 = 0.2001	962.815	1.141
323.15 K, x2 = 0.3009	940.651	1.124
323.15 K, x2 = 0.4019	918.196	1.104
323.15 K, x2 = 0.5003	896.069	1.098
323.15 K, x2 = 0.5995	873.531	1.103
323.15 K, x2 = 0.7004	850.415	1.124
323.15 K, x2 = 0.7985	827.785	1.162
323.15 K, x2 = 0.899	804.404	1.222
